Values of other authors in patent US11559486B2, “Ready-to-use formulation for Vincristine Sulfate Liposome Injection” (Spectrum Pharmaceuticals, Inc., priority 2015, dated 2023).

Settings: 0.45% aqueous sodium chloride and Ringers admixtures at 25° C. to 37° C.

| SMILES | degradation in chloride-containing admixtures |
| --- | --- |
| COc1cccc2c1C(=O)c1c(O)c3c(c(O)c1C2=O)C[C@@](O)(C(=O)CO)C[C@@H]3O[C@H]1C[C@H](N)[C@H](O)[C@H](C)O1 [Doxorubicin] | degrade rapidly |
| CC[C@]1(O)C[C@H]2CN(CCc3c([nH]c4ccccc34)[C@@](C(=O)OC)(c3cc4c(cc3OC)N(C=O)[C@H]3[C@@](O)(C(=O)OC)[C@H](OC(C)=O)[C@]5(CC)C=CCN6CC[C@]43[C@@H]65)C2)C1 [vincristine, (3aR,3a^1R,4R,5S,5aR,10bR)-methyl-4-acetoxy-3a-ethyl-9-((5S,7S,9S)-5-ethyl-5-hydroxy-9-(methoxycarbonyl)-2,4,5,6,7,8,9,10-octahydro-1H-3,7-methano[1]azacycloundecino[5,4-b]indol-9-yl)-6-formyl-5-hydroxy-8-methoxy-3a,3a1,4,5,5a,6,11,12-octahydro-1H-indolizino[8,1-cd]carbazole-5-carboxylate] | degrade rapidly |
